# In patent publication US6517839B1, “Methods for inducing interleukin-12 and a type1/Th1 T-cell response” (priority 1997, dated 2003):
# Test system: THP-1 cells
# Experiment: IL-12 p40 release from THP-1 cells, measured by ELISA of 20 h supernatants
# Format: cell-based, human
# Details: for IL-12 p40 release: Example 7, FIG. 10, THP-1 20 h
Substance,"IL-12 p40 release (monocyte Western blot) (Example 4, FIG. 7, solubilized gel regions of Rotofor fraction #4, average of four experiments)",IL-12 p40 release
38 kDa lipoprotein: M. tuberculosis 38 kDa lipoprotein antigen; migrates as 39 kDa band,some contribution,
recombinant 19 kDa expressed in E. coli: recombinant form of the M. tuberculosis 19 kDa antigen expressed in E. coli,,failed to induce any IL-12 p40
"recombinant 19 kDa expressed in M. vaccae: recombinant form of the M. tuberculosis 19 kDa antigen expressed in a mycobacterial system, M. vaccae",,stimulated IL-12 p40 release in an equivalent manner
